Assay results published in BindingDB's records for doi:10.1016/s0960-894x(02)00682-0 (Bristol-Myers Squibb Pharmaceutical Research Institute, 2002).
Peptide text beside a SMILES is read from it. * marks the point of attachment. X11 = CCCCCC[C@H](N*)B1O[C@@H]2C[C@@H]3C[C@@H](C3(C)C)[C@]2(C)O1; X14 = CCCC[C@H](N*)B1O[C@@H]2C[C@@H]3C[C@@H](C3(C)C)[C@]2(C)O1

molecular target: not listed separately; experiment: Inhibitory concentration against Human pancreatic Serine protease chymotrypsin

IC50 | SMILES
> 60 µM | CC(C)[C@H](NC(=O)[C@H](CCC(=O)O)NC(=O)[C@@H](N)CC(=O)O)C(=O)N[C@H](C(=O)N1CCC[C@H]1C(=O)N[C@@H](CCc1ccc(C(C)(C)C)cc1)B1O[C@@H]2C[C@@H]3C[C@@H](C3(C)C)[C@]2(C)O1)C(C)C [Peptide Boronic Acid analogue]
> 60 µM | CC(C)[C@H](NC(=O)[C@H](CCC(=O)O)NC(=O)[C@@H](N)CC(=O)O)C(=O)N[C@H](C(=O)N1CCC[C@H]1C(=O)N[C@@H](CCc1ccc(C2CCCCC2)cc1)B1O[C@@H]2C[C@@H]3C[C@@H](C3(C)C)[C@]2(C)O1)C(C)C [Peptide Boronic Acid analogue]
> 60 µM | CC(C)[C@H](NC(=O)[C@H](CCC(=O)O)NC(=O)[C@@H](N)CC(=O)O)C(=O)N[C@H](C(=O)N1CCC[C@H]1C(=O)N[C@@H](CCc1ccc(Oc2ccccc2)cc1)B1O[C@@H]2C[C@@H]3C[C@@H](C3(C)C)[C@]2(C)O1)C(C)C [Peptide Boronic Acid analogue]
> 60 µM | CC(C)c1ccc(CC[C@H](NC(=O)[C@@H]2CCCN2C(=O)[C@@H](NC(=O)[C@@H](NC(=O)[C@H](CCC(=O)O)NC(=O)[C@@H](N)CC(=O)O)C(C)C)C(C)C)B2O[C@@H]3C[C@@H]4C[C@@H](C4(C)C)[C@]3(C)O2)cc1 [Peptide Boronic Acid analogue]
20 µM | COc1ccc(CC[C@H](NC(=O)[C@@H]2CCCN2C(=O)[C@@H](NC(=O)[C@@H](NC(=O)[C@H](CCC(=O)O)NC(=O)[C@@H](N)CC(=O)O)C(C)C)C(C)C)B2O[C@@H]3C[C@@H]4C[C@@H](C4(C)C)[C@]3(C)O2)cc1 [Peptide Boronic Acid analogue]

molecular target: T1, Chymotrypsin-C (Homo sapiens, UniProt Q99895); experiment: (§1) Inhibitory concentration against Human pancreatic Serine protease chymotrypsin
T1 sequence (Q99895 whole entry): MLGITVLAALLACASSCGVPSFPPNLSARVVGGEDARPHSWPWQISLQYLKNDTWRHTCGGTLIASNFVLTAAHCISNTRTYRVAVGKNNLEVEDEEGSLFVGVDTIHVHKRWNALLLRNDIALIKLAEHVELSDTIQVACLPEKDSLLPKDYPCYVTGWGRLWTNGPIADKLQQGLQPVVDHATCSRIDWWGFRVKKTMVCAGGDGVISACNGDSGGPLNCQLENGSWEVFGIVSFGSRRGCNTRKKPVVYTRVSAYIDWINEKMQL

IC50 | SMILES
1.9 µM | CC(C)[C@H](NC(=O)[C@H](CCC(=O)O)NC(=O)[C@@H](N)CC(=O)O)C(=O)N[C@H](C(=O)N1CCC[C@H]1C(=O)N[C@@H](CCCCc1ccccc1)B1O[C@@H]2C[C@@H]3C[C@@H](C3(C)C)[C@]2(C)O1)C(C)C [Peptide Boronic Acid analogue]
16 µM | CC(C)[C@H](NC(=O)[C@H](CCC(=O)O)NC(=O)[C@@H](N)CC(=O)O)C(=O)N[C@H](C(=O)N1CCC[C@H]1C(=O)N[C@@H](CCc1ccc(C(F)(F)F)cc1)B1O[C@@H]2C[C@@H]3C[C@@H](C3(C)C)[C@]2(C)O1)C(C)C [Peptide Boronic Acid analogue]
> 60 µM | CC[C@H](NC(=O)[C@@H]1CCCN1C(=O)[C@@H](NC(=O)[C@@H](NC(=O)[C@H](CCC(=O)O)NC(=O)[C@@H](N)CC(=O)O)C(C)C)C(C)C)B1O[C@@H]2C[C@@H]3C[C@@H](C3(C)C)[C@]2(C)O1 [Peptide Boronic Acid analogue]
3.7 µM | Cc1ccc(CC[C@H](NC(=O)[C@@H]2CCCN2C(=O)[C@@H](NC(=O)[C@@H](NC(=O)[C@H](CCC(=O)O)NC(=O)[C@@H](N)CC(=O)O)C(C)C)C(C)C)B2O[C@@H]3C[C@@H]4C[C@@H](C4(C)C)[C@]3(C)O2)cc1 [Peptide Boronic Acid analogue]
0.42 µM | CCCCCC[C@H](NC(=O)[C@@H]1CCCN1C(=O)[C@@H](NC(=O)[C@@H](NC(=O)[C@H](CCC(=O)O)NC(=O)[C@@H](N)CC(=O)O)C(C)C)C(C)C)B1O[C@@H]2C[C@@H]3C[C@@H](C3(C)C)[C@]2(C)O1 [Peptide Boronic Acid analogue] (H-DEVVP-X11)
2.1 µM | CCCC[C@H](NC(=O)[C@@H]1CCCN1C(=O)[C@@H](NC(=O)[C@@H](NC(=O)[C@H](CCC(=O)O)NC(=O)[C@@H](N)CC(=O)O)C(C)C)C(C)C)B1O[C@@H]2C[C@@H]3C[C@@H](C3(C)C)[C@]2(C)O1 [Peptide Boronic Acid analogue] (H-DEVVP-X14)

molecular target: T1, Chymotrypsin-C; experiment: ChEBML_197808
Source text: as §1

IC50 | SMILES
48 µM | CC(C)[C@H](NC(=O)[C@H](CCC(=O)O)NC(=O)[C@@H](N)CC(=O)O)C(=O)N[C@H](C(=O)N1CCC[C@H]1C(=O)N[C@@H](CCc1ccc(-c2ccccc2)cc1)B1O[C@@H]2C[C@@H]3C[C@@H](C3(C)C)[C@]2(C)O1)C(C)C [Peptide Boronic Acid analogue]
